Results published in BindingDB's records for doi:10.7270/Q2WQ02FK (The Scripps Research Institute Molecular Screening Center, 2013).

target: T1, T cell receptor alpha variable 4 (Homo sapiens, UniProt A0A0B4J268)
T1 sequence (A0A0B4J268 whole entry): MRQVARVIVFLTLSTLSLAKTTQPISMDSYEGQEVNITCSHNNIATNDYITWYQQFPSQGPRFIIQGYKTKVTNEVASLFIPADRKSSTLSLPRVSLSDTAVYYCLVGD

Point of comparison: `Oc1c(Br)cc(CC=Nc2cc(O)c3cccnc3c2O)cc1Br` [7-[2-(3,5-dibromo-4-hydroxyphenyl)ethylamino]quinoline-5,8-dione], IC50 18.8 µM. Against it:
- CC1=CC(/C=N/n2c(COc3ccccc3C)nc3ccccc3c2=O)C(=O)C([N+](=O)[O-])=C1 (configuration not stated) — higher, > 94.1 µM
- COc1ccc(CC(=O)N/N=C/C2C=C([N+](=O)[O-])C=C(Br)C2=O)cc1 (configuration not stated) — higher, > 94.1 µM
- CC1=CC(/C=N/n2c(CO[N-][C+](C)c3ccccc3)nc3ccccc3c2=O)C(=O)C([N+](=O)[O-])=C1 (configuration not stated) — higher, > 94.1 µM
- O=C(N/N=C/C1C=CC=C([N+](=O)[O-])C1=O)c1cccs1 (configuration not stated) — higher, > 94.1 µM
- COC1=CC([N+](=O)[O-])=CC(/C=N/NC(=O)c2cc(C)nc3ccccc23)C1=O (configuration not stated) — higher, > 94.1 µM
- O=C(N/N=C/C1C=C([N+](=O)[O-])C=CC1=O)c1cccc(N2CCCC2=O)c1 (configuration not stated) — higher, > 94.1 µM
- CCOC(=O)C1C(CC)=Nc2ccccc2N=C1NC(=O)Nc1ccc(Cl)c(Cl)c1 (configuration not stated) — 1.8-fold lower, 10.7 µM
- O=C(NN=CC1=CC(=O)C(=O)CC1)NN=CC1=CC(=O)C(=O)CC1 [1,3-bis[[(Z)-(3-hydroxy-4-oxocyclohexa-2,5-dien-1-ylidene)methyl]amino]urea] — 18-fold lower, 1.03 µM
- O=C1C([N+](=O)[O-])=CC(Cl)=CC1C=NNC(=S)Nc1ccc(S(=O)(=O)N2CCOCC2)cc1 (configuration not stated) [1-[[(E)-(3-chloro-5-nitro-6-oxo-1-cyclohexa-2,4-dienylidene)methyl]amino]-3-[4-(4-morpholinylsulfonyl)phenyl]thiourea] — higher, > 94.1 µM
- Nc1nnc(CC(=O)N/N=C/C2C=C([N+](=O)[O-])C=CC2=O)s1 (configuration not stated) [2-(5-amino-1,3,4-thiadiazol-2-yl)-N'-[(E)-(3-nitro-6-oxo-1-cyclohexa-2,4-dienylidene)methyl]acetohydrazide] — higher, > 94.1 µM
- O=C(CNC(=O)c1ccccc1Br)N/N=C/C1C=C([N+](=O)[O-])C=C(Br)C1=O (configuration not stated) [2-bromanyl-N-[2-[2-[(E)-(5-bromanyl-3-nitro-6-oxidanylidene-cyclohexa-2,4-dien-1-ylidene)methyl]hydrazinyl]-2-oxidanylidene-ethyl]benzamide] — higher, > 94.1 µM
- CCC(NNC(=O)c1ccccc1O)=C1C(=O)NC(=O)N(Cc2ccccc2)C1=O [2-hydroxy-N'-[(1E)-1-[2,4,6-trioxo-1-(phenylmethyl)-1,3-diazinan-5-ylidene]propyl]benzohydrazide] — higher, > 94.1 µM
- O=C1NC(=O)N(CCc2ccccc2)C(=O)C1=CNNC(=O)c1ccccc1O [2-hydroxy-N'-[(E)-[2,4,6-trioxo-1-(2-phenylethyl)-1,3-diazinan-5-ylidene]methyl]benzohydrazide] — higher, > 94 µM
- O=C1C=CC([N+](=O)[O-])=CC1/C=N/n1c(COc2ccccc2)nc2ccccc2c1=O (configuration not stated) [3-[[(E)-(3-nitro-6-oxocyclohexa-2,4-dien-1-ylidene)methyl]amino]-2-(phenoxymethyl)quinazolin-4-one] — higher, > 94.1 µM
- O=C1CC(=O)c2c(O)cc(O)c(O)c2C1=O [4,5,7,8-tetrahydroxy-1,2-naphthoquinone] — higher, > 94.1 µM
- Oc1ccc(CN=Nc2ncnc3c2ncn3Cc2ccccc2)cc1O [(4Z)-2-oxidanyl-4-[[2-[9-(phenylmethyl)purin-6-yl]hydrazinyl]methylidene]cyclohexa-2,5-dien-1-one] — higher, > 94.1 µM
- O=[N+]([O-])c1cc(Br)c(O)c(CN=Nc2nnnn2-c2cccc3ccccc23)c1 [(6E)-2-bromo-6-[[2-(1-naphthalen-1-yltetrazol-5-yl)hydrazinyl]methylidene]-4-nitrocyclohexa-2,4-dien-1-one] — higher, > 94.1 µM
- CCc1n[nH]c(=S)n1N=CC1C=C(OC)C=C([N+](=O)[O-])C1=O (configuration not stated) [(6E)-6-[[(3-ethyl-5-sulfanylidene-1H-1,2,4-triazol-4-yl)amino]methylidene]-4-methoxy-2-nitro-1-cyclohexa-2,4-dienone] — within 1.5-fold, 18.4 µM
- C=CCN1C(=O)/C(=N\NC(=O)CNC(=O)/C=C/c2ccco2)c2ccccc21 [(E)-N-[1-Allyl-2-oxo-1,2-dihydro-indol-(3Z)-ylidene-hydrazinocarbonylmethyl]-3-furan-2-yl-acrylamide] — higher, > 94.1 µM
- O=C(N/N=C/C1C=C([N+](=O)[O-])C=CC1=O)/C(=C\c1cccs1)NC(=O)c1ccccc1 (configuration not stated) [MLS000332530] — higher, > 94.1 µM
- Cc1cc(C(=O)N/N=C/C2C=C(Br)C=C([N+](=O)[O-])C2=O)c2ccccc2n1 (configuration not stated) [MLS000585468] — higher, > 94.1 µM
- Cc1cc(=O)oc2cc(OCC(=O)N/N=C/C3C=C([N+](=O)[O-])C=CC3=O)ccc12 (configuration not stated) [MLS000588734] — higher, > 94.1 µM
- COC1=CC(=O)C(/C=N/NC(=O)c2ccncc2)C(OC)=C1[N+](=O)[O-] (configuration not stated) [MLS000673335] — higher, > 94.1 µM
- Cc1cc2cc(CNC(=O)c3ccc(C)c([N+](=O)[O-])c3)ccc2[nH]1 [MLS000724615] — higher, > 94.1 µM
- O=C(CSc1nc2ccccc2s1)N/N=C/C1C=C([N+](=O)[O-])C=CC1=O (configuration not stated) [MLS000777065] — higher, > 94.1 µM
- O=C1C=CC([N+](=O)[O-])=CC1C=NNC(=S)Nc1ccc(Cl)cc1Cl (configuration not stated) [MLS000777079] — higher, > 94.1 µM
- CC1=CC([N+](=O)[O-])=CC(/C=N/n2c(C)nc3ccccc3c2=O)C1=O (configuration not stated) [MLS000778735] — higher, > 94 µM
- CN1C(=O)C(C=NNC(=O)c2cc3ccccc3cc2O)c2ccccc21 (configuration not stated) [MLS000912237] — higher, > 94.1 µM
- O=C(N/N=C/C1C=C(Cl)C=C([N+](=O)[O-])C1=O)c1cccc(S(=O)(=O)N2CCOCC2)c1 (configuration not stated) [MLS002155639] — higher, > 94.1 µM
- O=C(N/N=C/C1C=C(Cl)C=C([N+](=O)[O-])C1=O)c1ccc2c(c1)OCO2 (configuration not stated) [N'-[(E)-(3-chloranyl-5-nitro-6-oxidanylidene-cyclohexa-2,4-dien-1-ylidene)methyl]-1,3-benzodioxole-5-carbohydrazide] — higher, > 94.1 µM
- Cc1cc(C(=O)N/N=C/C2C=C(Cl)C=C([N+](=O)[O-])C2=O)c2ccccc2n1 (configuration not stated) [N'-[(E)-(3-chloranyl-5-nitro-6-oxidanylidene-cyclohexa-2,4-dien-1-ylidene)methyl]-2-methyl-quinoline-4-carbohydrazide] — higher, > 94.1 µM
- CC1=CC([N+](=O)[O-])=CC(/C=N/NC(=O)C2COc3ccccc3O2)C1=O (configuration not stated) [N'-[(E)-(5-methyl-3-nitro-6-oxocyclohexa-2,4-dien-1-ylidene)methyl]-2,3-dihydro-1,4-benzodioxine-3-carbohydrazide] — higher, > 94.2 µM
- O=C1NC(=O)N(Cc2ccco2)C(=O)C1=CNNC(=O)c1ccccc1O [N'-[(E)-[1-(furan-2-ylmethyl)-2,4,6-tris(oxidanylidene)-1,3-diazinan-5-ylidene]methyl]-2-oxidanyl-benzohydrazide] — higher, > 94 µM
- O=C1NC(=O)N(Cc2ccco2)C(=O)C1=CNNC(=O)c1ccccc1 [N'-[(E)-[1-(furan-2-ylmethyl)-2,4,6-tris(oxidanylidene)-1,3-diazinan-5-ylidene]methyl]benzohydrazide] — higher, > 94.2 µM
- Cc1ccccc1C(=O)Nc1cccc(C(=O)N/N=C/C2C=C(Cl)C=C([N+](=O)[O-])C2=O)c1 (configuration not stated) [N-(3-{[(2E)-2-(5-chloro-2-hydroxy-3-nitrobenzylidene)hydrazino]carbonyl}phenyl)-2-methylbenzamide] — higher, > 94.1 µM
- Cc1ccc(C(=O)Nc2nc(C(C)(C)C)cs2)s1 [N-(4-tert-butyl-2-thiazolyl)-5-methyl-2-thiophenecarboxamide] — higher, > 94.1 µM
- O=C(NC(C(=O)NN=CC1C=C([N+](=O)[O-])C=CC1=O)c1n[nH]c(=O)c2ccccc12)c1ccccc1 (configuration not stated) [N-[2-[2-[(E)-(3-nitro-6-oxidanylidene-cyclohexa-2,4-dien-1-ylidene)methyl]hydrazinyl]-2-oxidanylidene-1-(4-oxidanylidene-3H-phthalazin-1-yl)ethyl]benzamide] — higher, > 94.1 µM
- CC(NNC(=O)c1ccc(-c2ccccc2)cc1)=C1C(=O)c2ccccc2C1=O [N-[(E)-1-(1,3-dioxoinden-2-yl)ethylideneamino]-4-phenylbenzamide] — higher, > 94.1 µM
- O=C(N/N=C/C1C=C([N+](=O)[O-])C=C([N+](=O)[O-])C1=O)/C(=C\c1cccs1)NC(=O)c1ccccc1 (configuration not stated) [SMR000207704] — higher, > 94.1 µM
- O=C1C([N+](=O)[O-])=CC=CC1/C=N/n1cnc2scc(-c3ccc(Cl)cc3)c2c1=O (configuration not stated) [SMR000314525] — higher, > 94.1 µM
- Cc1cc(C(=O)NN=CC2C=C(Cl)C=C([N+](=O)[O-])C2=O)[nH]n1 (configuration not stated) [SMR000414694] — higher, > 94.1 µM
- Cc1c(NC(=S)NN=CC2C=C([N+](=O)[O-])C=CC2=O)c(=O)n(-c2ccccc2)n1C (configuration not stated) [SMR000415003] — higher, > 94.1 µM
- COc1ccc(C(=O)CC=NNC(=O)c2ccc(Cl)cc2)cc1 [SMR000499516] — higher, > 94.1 µM
- O=Nc1[nH]c(=O)c(CC(=O)c2ccccc2)nc1NO [SMR000539633] — higher, > 94.2 µM
- O=C(O)c1ccccc1NS(=O)(=O)c1ccc(N=NCc2ccc(O)c(O)c2)c([N+](=O)[O-])c1 [SMR001238114] — 1.7-fold higher, 32.5 µM
- CCOC(=O)c1c(C)[nH]c(C(=O)N/N=C/C2C=C([N+](=O)[O-])C=CC2=O)c1C (configuration not stated) [ethyl 2,4-dimethyl-5-[[[(E)-(3-nitro-6-oxocyclohexa-2,4-dien-1-ylidene)methyl]amino]carbamoyl]-1H-pyrrole-3-carboxylate] — higher, > 94.1 µM
